{
  "source": "patent US11053204B2",
  "about": "“Pyrimidinyloxy benzene derivatives as herbicides” (FMC Corporation, priority 2015, dated 2021)",
  "assay_in_all_cases": "Test C postemergence, plant response rating",
  "format_in_all_cases": "in vivo",
  "key": {"[1]": {"system": "ryegrass, Italian (Italian ryegrass, Lolium multiflorum)", "details": "for Plant response rating, Ryegrass, Italian: scale 0 to 100; for Ryegrass, Italian plant response rating: scale 0 to 100 (0 no effect, 100 complete control)", "how_it_was_run": "(§1)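 Visual injury score, 0 = no effect, 100 = complete control, assigned against untreated controls after 13 to 15 d in the greenhouse. Compounds were applied in a surfactant-containing non-phytotoxic solvent mix, preemergence to seeded loam/sand or silt loam soil, or postemergence to 1- to 4-leaf plants (2 to 18 cm).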"}, "[2]": {"system": "blackgrass (Alopecurus myosuroides)", "details": "for Plant response rating, Blackgrass: scale 0 to 100; for Blackgrass plant response rating: scale 0 to 100 (0 no effect, 100 complete control)", "how_it_was_run": "as §1"}, "[3]": {"system": "lambsquarters (Chenopodium album)", "details": "for Plant response rating, Lambsquarters: scale 0 to 100; for Lambsquarters plant response rating: scale 0 to 100 (0 no effect, 100 complete control)", "how_it_was_run": "as §1"}, "[4]": {"system": "galium (catchweed bedstraw, Galium aparine)", "details": "for Plant response rating, Galium: scale 0 to 100; for Galium plant response rating: scale 0 to 100 (0 no effect, 100 complete control)", "how_it_was_run": "as §1"}, "[5]": {"system": "ragweed (common ragweed, Ambrosia elatior)", "details": "for Plant response rating, Ragweed: scale 0 to 100; for Ragweed plant response rating: scale 0 to 100 (0 no effect, 100 complete control)", "how_it_was_run": "as §1"}, "[6]": {"system": "oat, wild (wild oat Avena fatua)", "details": "for Plant response rating, Oat, Wild: scale 0 to 100; for Oat, Wild plant response rating: scale 0 to 100 (0 no effect, 100 complete control)", "how_it_was_run": "as §1"}, "corn (Zea mays)": {"system": "corn (Zea mays)", "details": "for Plant response rating, Corn: scale 0 to 100; for Corn plant response rating: scale 0 to 100 (0 no effect, 100 complete control)", "how_it_was_run": "as §1"}, "[7]": {"system": "wheat (winter wheat, Triticum aestivum)", "details": "for Plant response rating, Wheat: scale 0 to 100; for Wheat plant response rating: scale 0 to 100 (0 no effect, 100 complete control)", "how_it_was_run": "as §1"}, "[8]": {"system": "velvetleaf (Abutilon theophrasti)", "details": "for Plant response rating, Velvetleaf: scale 0 to 100; for Velvetleaf plant response rating: scale 0 to 100 (0 no effect, 100 complete control)", "how_it_was_run": "as §1"}, "[9]": {"system": "barnyardgrass (Echinochloa crus-galli)", "details": "for Plant response rating, Barnyardgrass: scale 0 to 100; for Barnyardgrass plant response rating: scale 0 to 100 (0 no effect, 100 complete control)", "how_it_was_run": "as §1"}, "[10]": {"system": "foxtail, giant (giant foxtail, Setaria faberii)", "details": "for Plant response rating, Foxtail, Giant: scale 0 to 100; for Foxtail, Giant plant response rating: scale 0 to 100 (0 no effect, 100 complete control)", "how_it_was_run": "as §1"}, "[11]": {"system": "oilseed rape (Brassica napus)", "details": "for Plant response rating, Oilseed Rape: scale 0 to 100; for Oilseed Rape plant response rating: scale 0 to 100 (0 no effect, 100 complete control)", "how_it_was_run": "as §1"}, "[12]": {"system": "nutsedge, yellow (yellow nutsedge, Cyperus esculentus)", "details": "for Plant response rating, Nutsedge, Yellow: scale 0 to 100; for Nutsedge, Yellow plant response rating: scale 0 to 100 (0 no effect, 100 complete control)", "how_it_was_run": "as §1"}, "soybean (Glycine max)": {"system": "soybean (Glycine max)", "details": "for Plant response rating, Soybean: scale 0 to 100; for Soybean plant response rating: scale 0 to 100 (0 no effect, 100 complete control)", "how_it_was_run": "as §1"}, "[13]": {"system": "crabgrass, large (large crabgrass, Digitaria sanguinalis)", "details": "for Plant response rating, Crabgrass, Large: scale 0 to 100; for Crabgrass, Large plant response rating: scale 0 to 100 (0 no effect, 100 complete control)", "how_it_was_run": "as §1"}, "[14]": {"system": "waterhemp (common waterhemp, Amaranthus rudis)", "details": "for Plant response rating, Waterhemp: scale 0 to 100; for Waterhemp plant response rating: scale 0 to 100 (0 no effect, 100 complete control)", "how_it_was_run": "as §1"}},
  "data": [
    {"smiles": "N#CCCOC(=O)c1c(Br)cccc1Oc1ncc(Cl)cn1", "note": "[Compound 7]", "values": [
      {"measurement": "Plant response rating, Ryegrass, Italian", "setting": "[1]; 16 g ai/ha", "result": 10},
      {"measurement": "Plant response rating, Ryegrass, Italian", "setting": "[1]; 31 g ai/ha", "result": 0},
      {"measurement": "Ryegrass, Italian plant response rating", "setting": "[1]; 62 g ai/ha", "result": 30},
      {"measurement": "Ryegrass, Italian plant response rating", "setting": "[1]; 125 g ai/ha", "result": 30},
      {"measurement": "Plant response rating, Blackgrass", "setting": "[2]; 16 g ai/ha", "result": 0},
      {"measurement": "Plant response rating, Blackgrass", "setting": "[2]; 31 g ai/ha", "result": 0},
      {"measurement": "Blackgrass plant response rating", "setting": "[2]; 62 g ai/ha", "result": 0},
      {"measurement": "Blackgrass plant response rating", "setting": "[2]; 125 g ai/ha", "result": 5},
      {"measurement": "Plant response rating, Lambsquarters", "setting": "[3]; 16 g ai/ha", "result": 5},
      {"measurement": "Plant response rating, Lambsquarters", "setting": "[3]; 31 g ai/ha", "result": 25},
      {"measurement": "Lambsquarters plant response rating", "setting": "[3]; 62 g ai/ha", "result": 30},
      {"measurement": "Lambsquarters plant response rating", "setting": "[3]; 125 g ai/ha", "result": 55},
      {"measurement": "Plant response rating, Galium", "setting": "[4]; 16 g ai/ha", "result": 0},
      {"measurement": "Plant response rating, Galium", "setting": "[4]; 31 g ai/ha", "result": 0},
      {"measurement": "Galium plant response rating", "setting": "[4]; 62 g ai/ha", "result": 10},
      {"measurement": "Galium plant response rating", "setting": "[4]; 125 g ai/ha", "result": 40},
      {"measurement": "Plant response rating, Ragweed", "setting": "[5]; 16 g ai/ha", "result": 10},
      {"measurement": "Plant response rating, Ragweed", "setting": "[5]; 31 g ai/ha", "result": 20},
      {"measurement": "Ragweed plant response rating", "setting": "[5]; 62 g ai/ha", "result": 20},
      {"measurement": "Ragweed plant response rating", "setting": "[5]; 125 g ai/ha", "result": 25},
      {"measurement": "Plant response rating, Oat, Wild", "setting": "[6]; 16 g ai/ha", "result": 0},
      {"measurement": "Plant response rating, Oat, Wild", "setting": "[6]; 31 g ai/ha", "result": 0},
      {"measurement": "Oat, Wild plant response rating", "setting": "[6]; 62 g ai/ha", "result": 5},
      {"measurement": "Oat, Wild plant response rating", "setting": "[6]; 125 g ai/ha", "result": 5},
      {"measurement": "Plant response rating, Corn", "setting": "corn (Zea mays); 16 g ai/ha", "result": 5},
      {"measurement": "Plant response rating, Corn", "setting": "corn (Zea mays); 31 g ai/ha", "result": 10},
      {"measurement": "Corn plant response rating", "setting": "corn (Zea mays); 62 g ai/ha", "result": 10},
      {"measurement": "Corn plant response rating", "setting": "corn (Zea mays); 125 g ai/ha", "result": 15},
      {"measurement": "Plant response rating, Wheat", "setting": "[7]; 16 g ai/ha", "result": 0},
      {"measurement": "Plant response rating, Wheat", "setting": "[7]; 31 g ai/ha", "result": 0},
      {"measurement": "Wheat plant response rating", "setting": "[7]; 62 g ai/ha", "result": 5},
      {"measurement": "Wheat plant response rating", "setting": "[7]; 125 g ai/ha", "result": 5},
      {"measurement": "Plant response rating, Velvetleaf", "setting": "[8]; 16 g ai/ha", "result": 5},
      {"measurement": "Plant response rating, Velvetleaf", "setting": "[8]; 31 g ai/ha", "result": 20},
      {"measurement": "Velvetleaf plant response rating", "setting": "[8]; 62 g ai/ha", "result": 35},
      {"measurement": "Velvetleaf plant response rating", "setting": "[8]; 125 g ai/ha", "result": 40},
      {"measurement": "Plant response rating, Barnyardgrass", "setting": "[9]; 16 g ai/ha", "result": 5},
      {"measurement": "Plant response rating, Barnyardgrass", "setting": "[9]; 31 g ai/ha", "result": 5},
      {"measurement": "Barnyardgrass plant response rating", "setting": "[9]; 62 g ai/ha", "result": 15},
      {"measurement": "Barnyardgrass plant response rating", "setting": "[9]; 125 g ai/ha", "result": 10},
      {"measurement": "Plant response rating, Foxtail, Giant", "setting": "[10]; 16 g ai/ha", "result": 5},
      {"measurement": "Plant response rating, Foxtail, Giant", "setting": "[10]; 31 g ai/ha", "result": 5},
      {"measurement": "Foxtail, Giant plant response rating", "setting": "[10]; 62 g ai/ha", "result": 10},
      {"measurement": "Foxtail, Giant plant response rating", "setting": "[10]; 125 g ai/ha", "result": 15},
      {"measurement": "Plant response rating, Oilseed Rape", "setting": "[11]; 16 g ai/ha", "result": 0},
      {"measurement": "Plant response rating, Oilseed Rape", "setting": "[11]; 31 g ai/ha", "result": 0},
      {"measurement": "Oilseed Rape plant response rating", "setting": "[11]; 62 g ai/ha", "result": 0},
      {"measurement": "Oilseed Rape plant response rating", "setting": "[11]; 125 g ai/ha", "result": 5},
      {"measurement": "Plant response rating, Nutsedge, Yellow", "setting": "[12]; 16 g ai/ha", "result": 0},
      {"measurement": "Plant response rating, Nutsedge, Yellow", "setting": "[12]; 31 g ai/ha", "result": 0},
      {"measurement": "Nutsedge, Yellow plant response rating", "setting": "[12]; 62 g ai/ha", "result": 5},
      {"measurement": "Nutsedge, Yellow plant response rating", "setting": "[12]; 125 g ai/ha", "result": 5},
      {"measurement": "Plant response rating, Soybean", "setting": "soybean (Glycine max); 16 g ai/ha", "result": 25},
      {"measurement": "Plant response rating, Soybean", "setting": "soybean (Glycine max); 31 g ai/ha", "result": 25},
      {"measurement": "Soybean plant response rating", "setting": "soybean (Glycine max); 62 g ai/ha", "result": 40},
      {"measurement": "Soybean plant response rating", "setting": "soybean (Glycine max); 125 g ai/ha", "result": 70},
      {"measurement": "Plant response rating, Crabgrass, Large", "setting": "[13]; 16 g ai/ha", "result": 5},
      {"measurement": "Plant response rating, Crabgrass, Large", "setting": "[13]; 31 g ai/ha", "result": 5},
      {"measurement": "Crabgrass, Large plant response rating", "setting": "[13]; 62 g ai/ha", "result": 20},
      {"measurement": "Crabgrass, Large plant response rating", "setting": "[13]; 125 g ai/ha", "result": 15},
      {"measurement": "Plant response rating, Waterhemp", "setting": "[14]; 16 g ai/ha", "result": 35},
      {"measurement": "Plant response rating, Waterhemp", "setting": "[14]; 31 g ai/ha", "result": 70},
      {"measurement": "Waterhemp plant response rating", "setting": "[14]; 62 g ai/ha", "result": 60},
      {"measurement": "Waterhemp plant response rating", "setting": "[14]; 125 g ai/ha", "result": 65}
    ]}
  ]
}
